Experimental data as given in patent publication US20160046592A1, “PHARMACEUTICAL COMPOSITION FOR THE TREATMENT OF DIABETES” (Ajinomoto Co., Inc., priority 2013, published 2016).
pEC50: −log10 of the molar value. Structures can show the parent of a compound that is named as a salt.

Legend:
[1] = tested on: Rat skeletal muscle-derived L6 myoblasts (differentiated into myotube cells); assay: Evaluation of glycogen accumulation in L6; type: cell-based; details: [14C] glycogen from D-[U-C14] glucose, 3 hours incubation, 100% = compound of Example 1 of WO/2011/058154 at 30 μM
Experimental: The glycogen accumulation activity was evaluated in skeletal muscle cells according to the published article (ANALYTICAL BIOCHEMISTRY, Vol. 261: 159-163, 1998) by the following method. Rat skeletal muscle-derived L6 myoblasts (ATCC) were seeded in a 96-well collagen-coated plate (IWAKI, 4860-010) by using a growth medium (10% FBS-containing α-MEM medium (NACALAI TESQUE, INC., 21444-05)) under a condition of 4×10^4 cells/100 μL/well. After culturing under conditions of 37° C. and 5% CO2 overnight, the medium was replaced with a differentiation medium (2% FBS-containing α-MEM medium), followed by culturing for 3 days to differentiate the myoblasts into myotube cells. On the day of evaluation, the medium was replaced with a glucose-deprived medium (0.1% BSA-containing DMEM medium (Gibco, 11966)). After culturing for 4 hours, the medium was replaced with assay media (0.1% BSA-containing DMEM medium (NACALAI TESQUE, INC., 08456-65)) containing 0.6% DMSO and one of the test compounds at a concentration which was twice the final evaluation concentration at 15 μL/well. Further, an assay medium containing D-[U—C14] glucose (PerkinElmer Inc., NEC042V) at […] was added at 15 μL/well to adjust the final volume to 30 μL/well. Then, the cells were incubated under conditions of 37° C. and 5% CO2 for 3 hours. After the incubation, each medium was removed by suction with an aspirator, and the wells were rinsed with PBS at 200 μL/well twice. Then, 1 N NaOH was added at 50 μL/well, and the cells were lysed by incubation at 60° C. for 10 minutes. After the temperature of the lysed cells was returned to room temperature, each whole cell lysate and […] glycogen (Sigma-Aldrich, G8876) at 5 μL/well were added to a Multiscreen HTS (Millipore, MSFCN6B) to which 100% ethanol was added in advance at 100 μL/well, followed by incubation at 4° C. for 20 minutes. After the incubation, aspiration was conducted by using Multiscreen HTS Vacuum Manifold (Millipore), followed by rinse with 66% ethanol at 200 μL/well twice. After ethanol remaining on the filter was completely removed by drying, MicroScint40 (PerkinElmer Inc.) was added at 50 μL/well, the amount of [14C] glycogen was measured with TopCountNXT (PerkinElmer Inc.). The activity of each test compound was calculated by the following method. Specifically, the relative activity (%) was calculated as 100×(B−A)/(C−A), where A represents a value (cpm) measured for a well not containing the compound but containing only DMSO, B represents a value measured for a well containing the compound and DMSO, and C represents a value measured for a well containing the compound of Example 1 of WO/2011/058154 at a final concentration of 30 μM. EC50 representing the concentration of the compound at which an increase in activity by 50% was caused was calculated using XLfit (idbs).

PPAR-α = target: T1, PPAR-α (Homo sapiens, UniProt Q07869); assay: Measurement of PPAR-α activity (GAL4 luciferase reporter assay in CV-1 cells); type: cell-based; details: 100(A/B): A = maximum PPAR-α activity of test compound at 3, 10, 30 and 100 μM, B = activity of the compound of WO/2011/058154 at 100 μM, 18 to 20 hours, read-out: Relative fold induction (%) of PPAR α
T1 construct: expressed in transfected cells; host or cells: CV-1 (African green monkey kidney)
T1 sequence (Q07869 167-468): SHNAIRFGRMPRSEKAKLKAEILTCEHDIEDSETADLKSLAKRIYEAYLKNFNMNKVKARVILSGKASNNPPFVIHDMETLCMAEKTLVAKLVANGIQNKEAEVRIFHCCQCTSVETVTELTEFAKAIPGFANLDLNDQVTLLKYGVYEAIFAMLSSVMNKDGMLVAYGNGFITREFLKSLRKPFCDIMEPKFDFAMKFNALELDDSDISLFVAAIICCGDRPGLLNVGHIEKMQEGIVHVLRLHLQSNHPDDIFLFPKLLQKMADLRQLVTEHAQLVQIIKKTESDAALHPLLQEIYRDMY
Outline: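 CV-1 cells were co-transfected with a UAS×5-TK-Luc reporter and a hGR-GAL4-hPPARα (LBD 167-468aa) expression plasmid, then dosed with compound for 18 to 20 h at 37 °C, with Bright-Glo luciferase read-out. Relative fold induction (%) is the maximum activity at 3, 10, 30 or 100 μM divided by the activity of a WO/2011/058154 reference compound at 100 μM.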

Row | SMILES | pEC50 [1] | Emax (PPAR-α) [%]
1 | COCCN(CC(=O)O)C(=O)c1cccc(COc2ccc(-c3cc(F)c(F)cc3SC)cc2)c1 [Example 6, 2-[[3-[[4-(4,5-Difluoro-2-methylsulfanyl-phenyl)phenoxy]methyl]benzoyl]-(2-methoxyethyl)amino]acetic Acid] | 6.24 | 86
2 | CSc1cc(F)c(F)cc1-c1ccc(OCc2cccc(C(=O)N(CC(=O)O)Cc3ccccn3)c2)cc1 [Example 20, 2-[[3-[[4-(4,5-Difluoro-2-methylsulfanyl-phenyl)phenoxy]methyl]benzoyl]-(2-pyridylmethyl)amino]acetic Acid Trifluoroacetate] | 6.15 | 13
3 | CSc1cc(F)c(F)cc1-c1ccc(OCc2cccc(C(=O)N(CC(=O)O)CC3CCNCC3)c2)cc1 [Example 35, 2-[[3-[[4-(4,5-Difluoro-2-methylsulfanyl-phenyl)phenoxy]methyl]benzoyl]-(4-piperidylmethyl)amino]acetic Acid Trifluoroacetate] | 6.20 | 8.5
4 | COC[C@H]1CC[C@@H](C(=O)O)N1C(=O)c1cccc(COc2ccc(-c3cc(F)c(F)cc3SC)cc2)c1 [Example 65, (2S,5R)-1-[3-[[4-(4,5-Difluoro-2-methylsulfanyl-phenyl)phenoxy]methyl]benzoyl]-5-(methoxymethyl)pyrrolidine-2-carboxylic Acid] | 5.74 | 7
5 | CNCCN(CC(=O)O)C(=O)c1cccc(COc2ccc(-c3cc(F)c(F)cc3SC)cc2)c1 [Example 28, 2-[[3-[[4-(4,5-Difluoro-2-methylsulfanyl-phenyl)phenoxy]methyl]benzoyl]-[2-(methylamino)ethyl]amino]acetic Acid Trifluoroacetate] | > 6.52 | 10
6 | CSc1cc(F)c(F)cc1-c1ccc(OCc2cccc(C(=O)N(CC(=O)O)Cc3ncco3)c2)cc1 [Example 42, 2-[[3-[[4-(4,5-Difluoro-2-methylsulfanyl-phenyl)phenoxy]methyl]benzoyl]-(oxazol-2-ylmethyl)amino]acetic Acid] | 6.06 | 13
7 | CSc1cc(F)c(F)cc1-c1ccc(OCc2cccc(C(=O)N(CCN3CCCC3)CC(=O)O)c2)cc1 [Example 40, 2-[[3-[[4-(4,5-Difluoro-2-methylsulfanyl-phenyl)phenoxy]methyl]benzoyl]-(2-pyrrolidin-1-ylethyl)amino]acetic Acid Trifluoroacetate] | 5.27 | 9.4
8 | O=C(O)CN(CC1CCNCC1)C(=O)c1cccc(COc2ccc(-c3cc(F)c(F)c4ccoc34)cc2)c1 [Example 12, 2-[[3-[[4-(4,5-Difluorobenzofuran-7-yl)phenoxy]methyl]benzoyl]-(4-piperidylmethyl)amino]acetic Acid Trifluoroacetate] | – | 4.7
